Source: patent US5763700A, “Pesticidal fluoroolefins” (British Technology Group Limited, priority 1992, dated 1998)

Test system: cornroot worm (Diabrotica balteata)
Assay: Residual soil activity against cornroot worm larvae, mortality after 48 hours, LC50 by probit analysis
Type: in vivo
Details: sandy soil, 10% moisture, 22 g, 20° C., 10 larvae, two replicates, 5 dose levels
Description: Residual soil activity of the compounds of Examples 25 to 40 was assessed against cornroot worm (Diabrotica balteata) using the following technique.
A known quantity of test compound dissolved in 1.0 ml acetone was applied evenly to a standard amount (22 g) of a sandy soil with a 10% moisture content. After 1 hour, 10 larvae were introduced. The temperature was maintained at 20° C. ±1° C. and mortality assessed after 48 hours. Two replicates of 10 larvae were used at each of 5 dose levels per compound. LC50 values were calculated as concentration of insecticide in the standard amount of soil using probit analysis.

Row | Compound | Residual Soil Activity (LC50) [ppm]
1 | Fc1ccc(C2(/C=C/Cc3ccc(F)c(Oc4ccccc4)c3)CC2)cc1 [Comp C, 1-(4-fluorophenyl)-1-(E-3-(4-fluoro-3-phenoxyphenyl)prop-1-enyl)-cyclopropane, reference compound] | 0.059
2 | F/C(=C\C1(c2ccc3c(c2)OCO3)CC1)Cc1ccc(F)c(Oc2ccccc2)c1 [Example 37, 1-(2-Fluoro-3-(4-fluoro-3-phenoxyphenyl)prop-1-enyl)-1-(3,4-methylenedioxyphenyl)cyclopropane] | 0.055
3 | CCOc1ccc(C2(/C=C/Cc3ccc(F)c(Oc4ccccc4)c3)CC2)cc1 [Comp B, 1-(4-ethoxyphenyl)-1-(E-3-(4-fluoro-3-phenoxyphenyl)prop-1-enyl)-cyclopropane, reference compound] | 0.43
4 | CCOc1ccc(C2(/C=C(\F)Cc3ccc(F)c(Oc4ccccc4)c3)CC2)cc1 [Example 34, 1-(4-Ethoxyphenyl)-1-(2-fluoro-3-(4-fluoro-3-phenoxyphenyl)prop-1-enyl)cyclopropane] | 0.031
5 | FC(F)(F)Oc1ccc(C2(/C=C/Cc3cccc(Oc4ccccc4)c3)CC2)cc1 [Comp D, 1-(4-trifluoromethoxyphenyl)-1-(E-3-(3-phenoxyphenyl)prop-1-enyl)-cyclopropane, reference compound] | 0.059
6 | F/C(=C\C1(c2ccc(OC(F)F)cc2)CC1)Cc1cccc(Oc2ccccc2)c1 [Example 32, 1-(4-Difluoromethoxyphenyl)-1-(2-fluoro-3-(3-phenoxyphenyl)prop-1-enyl)cyclopropane] | 0.055
7 | F/C(=C\C1(c2ccc(F)cc2)CC1)Cc1cccc(Oc2ccccc2)c1 [Example 28, 1-(2-Fluoro-3-(3-phenoxyphenyl)prop-1-enyl)-1-(4-fluorophenyl)cyclopropane] | 0.015
8 | F/C(=C\C1(c2ccc(OC(F)(F)F)cc2)CC1)Cc1cccc(Oc2ccccc2)c1 [Example 27, 1-(2-Fluoro-3-(3-phenoxyphenyl)prop-1-enyl)-1-(4-trifluoromethoxy-phenyl)cyclopropane] | 0.038
9 | F/C(=C\C1(c2ccc3c(c2)OCO3)CC1)Cc1cccc(Oc2ccccc2)c1 [Example 30, 1-(2-Fluoro-3-(3-phenoxyphenyl)prop-1-enyl)-1-(3,4-methylenedioxyphenyl)cyclopropane] | 0.021
10 | F/C(=C\C1(c2ccc(Cl)cc2)CC1)Cc1cccc(Oc2ccccc2)c1 [Example 25, 1-(4-Chlorophenyl)-1-(2-fluoro-3-(3-phenoxyphenyl)prop-1-enyl)cyclopropane] | 0.031
11 | Fc1ccc(C/C=C/C2(c3ccc(Cl)cc3)CC2)cc1Oc1ccccc1 [Comp A, 1-(4-chlorophenyl)-1-(E-3-(4-fluoro-3-phenoxyphenyl)prop-1-enyl)-cyclopropane, reference compound] | 0.68
12 | CCOc1ccc(C2(/C=C(\F)Cc3cccc(Oc4ccccc4)c3)CC2)cc1 [Example 26, 1-(4-Ethoxyphenyl)-1-(2-fluoro-3-(3-phenoxyphenyl)prop-1-enyl)cyclopropane] | 0.029
13 | F/C(=C\C1(c2ccc(OC(F)F)cc2)CC1)Cc1ccc(F)c(Oc2ccccc2)c1 [Example 39, 1-(4-Difluoromethoxyphenyl)-1-(2-fluoro-3-(4-fluoro-3-phenoxyphenyl)prop-1-enyl)cyclopropane] | 0.033
14 | F/C(=C\C1(c2ccc(F)cc2)CC1)Cc1ccc(F)c(Oc2ccccc2)c1 [Example 35, 1-(2-Fluoro-3-(4-fluoro-3-phenoxyphenyl)prop-1-enyl)-1-(4-fluorophenyl)cyclopropane] | 0.032
15 | F/C(=C\C1(c2ccc(C(F)(F)F)cc2F)CC1)Cc1ccc(F)c(Oc2ccccc2)c1 [Example 36, 1-(2-Fluoro-3-(4-fluoro-3-phenoxyphenyl)prop-1-enyl)-1-(2-fluoro-4-trifluoromethylphenyl)cyclopropane] | 0.021
16 | F/C(=C\C1(c2ccc(C(F)(F)F)cc2F)CC1)Cc1cccc(Oc2ccccc2)c1 [Example 29, 1-(2-Fluoro-3-(3-phenoxyphenyl)prop-1-enyl)-1-(2-fluoro-4-trifluoromethylphenyl) cyclopropane] | 0.030
